This note sets out measurements from ChEMBL document CHEMBL4118281, “Azoalkyl ether imidazo[2,1-b]benzothiazoles as potentially antimicrobial agents with novel structural skeleton” (2018).

Converted amounts (≈) assume the structure as drawn.

Assay [1] deals with Candida albicans. The assay is described as follows: Antifungal activity against Candida albicans after 24 hrs by two fold serial dilution based spectrophotometric analysis. The class given is functional.
Assay [2] has as its system Aspergillus flavus. The assay is described as follows: Antifungal activity against Aspergillus flavus after 24 hrs by two fold serial dilution based spectrophotometric analysis. The assay is classed as functional.
The subject of assay [3] is Escherichia coli. In words: Antibacterial activity against Escherichia coli JM109 after 24 hrs by micro broth dilution method. The assay is classed as functional. The settings on record: JM109, 24 h.
Assay [4] deals with Bacillus subtilis. The assay is described as follows: Antibacterial activity against Bacillus subtilis after 24 hrs by micro broth dilution method. The assay is classed as functional.
For assay [5], the system named is Pseudomonas aeruginosa. In words: Antibacterial activity against Pseudomonas aeruginosa after 24 hrs by micro broth dilution method. The assay is classed as functional.
In assay [6] the test system is Saccharomyces cerevisiae. In words: Antifungal activity against Beer yeast after 24 hrs by two fold serial dilution based spectrophotometric analysis. The assay is classed as functional.
Assay [7] relates to Bacillus. The assay is described as follows: Antibacterial activity against Bacillus proteus ATCC 13315 after 24 hrs by micro broth dilution method. The assay is classed as functional. The settings on record: ATCC 13315, 24 h.
Assay [8] has as its system Cyberlindnera jadinii. The assay is described as follows: Antifungal activity against Candida utilis after 24 hrs by two fold serial dilution based spectrophotometric analysis. The class given is functional. Particulars: Williopsis jadinii.
Assay [9] has as its system Staphylococcus aureus. In words: Antibacterial activity against Staphylococcus aureus ATCC 25923 after 24 hrs by micro broth dilution method. The class given is functional. Particulars: ATCC 25923, 24 h.
Assay [10] relates to Staphylococcus aureus. The assay is described as follows: Antibacterial activity against methicillin-resistant Staphylococcus aureus N315 after 24 hrs by micro broth dilution method. The class given is functional. The settings on record: N315, 24 h.
Assay [11] relates to Escherichia coli. In words: Antibacterial activity against Escherichia coli DH52 after 24 hrs by micro broth dilution method. The class given is functional. Particulars: DH52, 24 h.
Assay [12] deals with Pichia norvegensis. In words: Antifungal activity against Candida mycoderma after 24 hrs by two fold serial dilution based spectrophotometric analysis. The class given is functional.
Assay [13] concerns Salmonella typhi. The assay is described as follows: Antibacterial activity against Bacillus typhi after 24 hrs by micro broth dilution method. The class given is functional, Salmonella enterica subsp. enterica serovar Typhi. Particulars: Salmonella enterica.
In assay [14] the test system is Shigella dysenteriae. In words: Antibacterial activity against Shigella dysenteriae after 24 hrs by micro broth dilution method. The assay is classed as functional.
Assay [15] relates to Micrococcus luteus. The assay is described as follows: Antibacterial activity against Micrococcus luteus ATCC 4698 after 24 hrs by micro broth dilution method. The class given is functional. The settings on record: NCTC 2665, 24 h.

Consider `Cc1ncc([N+](=O)[O-])n1CCCCCOCc1c(-c2ccccc2)nc2sc3ccccc3n12`, for which the MIC in assay [1] is 8 µg/mL (≈ 16.8 µM); in assay [2], 16 µg/mL (≈ 33.6 µM); in assay [3], 2 µg/mL (≈ 4.21 µM); in assay [4] it was 16 µg/mL (≈ 33.6 µM); in [5] it was 8 µg/mL (≈ 16.8 µM); in [6], greater than 512 µg/mL. For the same compound, the MIC in assay [7] came out at 16 µg/mL (≈ 33.6 µM); in [8], 128 µg/mL (≈ 269 µM); in [9], 4 µg/mL (≈ 8.41 µM); in [10] it was 8 µg/mL (≈ 16.8 µM); in [11] it was 8 µg/mL (≈ 16.8 µM); in assay [12] it was 64 µg/mL (≈ 135 µM). Moreover, the results for the MIC in [13], in assay [14] and in assay [15] were 32 µg/mL (≈ 67.3 µM), 16 µg/mL (≈ 33.6 µM) and 64 µg/mL (≈ 135 µM), respectively.
As to `BrCCCCCOCc1c(-c2ccccc2)nc2sc3ccccc3n12`, the MIC in [1] amounted to 4 µg/mL (≈ 9.32 µM); in assay [2], 16 µg/mL (≈ 37.3 µM); in [3], 16 µg/mL (≈ 37.3 µM); in assay [4] it was 4 µg/mL (≈ 9.32 µM); in assay [5], 16 µg/mL (≈ 37.3 µM); in [6], 16 µg/mL (≈ 37.3 µM). Besides, the minimal inhibitory concentration (MIC) in assay [7] came to 16 µg/mL (≈ 37.3 µM); in assay [8], 64 µg/mL (≈ 149 µM); in [9] it was 32 µg/mL (≈ 74.5 µM); in assay [10], 16 µg/mL (≈ 37.3 µM); in assay [11] it was 16 µg/mL (≈ 37.3 µM); in assay [12], 64 µg/mL (≈ 149 µM). Moreover, the MIC in [13] was determined as 128 µg/mL (≈ 298 µM); in [14] it was 16 µg/mL (≈ 37.3 µM); in [15], 256 µg/mL (≈ 596 µM).
`O=[N+]([O-])c1cn(CCCOCc2c(-c3ccccc3)nc3sc4ccccc4n23)cn1`: the MIC is 2 µg/mL (≈ 4.61 µM) in assay [1]; 16 µg/mL (≈ 36.9 µM) in [2]; 8 µg/mL (≈ 18.5 µM) in [3]; 2 µg/mL (≈ 4.61 µM) in [4]; 2 µg/mL (≈ 4.61 µM) in [5]; 64 µg/mL (≈ 148 µM) in assay [6]. Besides, the minimal inhibitory concentration (MIC) in assay [7] is 4 µg/mL (≈ 9.23 µM); in assay [8], 128 µg/mL (≈ 295 µM); in [9] it was 4 µg/mL (≈ 9.23 µM); in assay [10], 8 µg/mL (≈ 18.5 µM); in assay [11], 4 µg/mL (≈ 9.23 µM); in [12] it was 32 µg/mL (≈ 73.8 µM). For the same compound, the MIC in [13] worked out at 32 µg/mL (≈ 73.8 µM); in assay [14], 8 µg/mL (≈ 18.5 µM); in assay [15] it was 256 µg/mL (≈ 591 µM).
Regarding `CCOc1ccc2c(c1)sc1nc(-c3ccccc3)c(COCCCBr)n12`, the MIC is greater than 512 µg/mL in [1]; 512 µg/mL (≈ 1150 µM) in assay [2]; greater than 512 µg/mL in assay [3]; greater than 512 µg/mL in [4]; 16 µg/mL (≈ 35.9 µM) in assay [5]; greater than 512 µg/mL in assay [6]. Further, the MIC in assay [7], in assay [8], in assay [9], in assay [10], in assay [11] and in [12] was greater than 512 µg/mL throughout. The MIC in assay [13] was 8 µg/mL (≈ 18 µM); in assay [14], greater than 512 µg/mL; in [15] it was greater than 512 µg/mL.
In the case of `OC(Cn1cncn1)(Cn1cncn1)c1ccc(F)cc1F` [FLUCONAZOLE], the MIC is 1 µg/mL (≈ 3.27 µM) in assay [1]; 256 µg/mL (≈ 836 µM) in [2]; 16 µg/mL (≈ 52.2 µM) in [6]; 8 µg/mL (≈ 26.1 µM) in [8]; 4 µg/mL (≈ 13.1 µM) in [12].
`CCn1cc(C(=O)O)c(=O)c2cc(F)c(N3CCNCC3)cc21` [NORFLOXACIN]: the minimum inhibitory concentration (MIC) came to 1 µg/mL (≈ 3.13 µM) in [3]; 4 µg/mL (≈ 12.5 µM) in assay [4]; 16 µg/mL (≈ 50.1 µM) in assay [5]; 8 µg/mL (≈ 25.1 µM) in assay [7]; 2 µg/mL (≈ 6.26 µM) in assay [9]; 8 µg/mL (≈ 25.1 µM) in assay [10]. Also, the MIC in assay [11] was determined as 1 µg/mL (≈ 3.13 µM); in [13], 4 µg/mL (≈ 12.5 µM); in assay [14], 16 µg/mL (≈ 50.1 µM); in assay [15] it was 2 µg/mL (≈ 6.26 µM).
As to `CCOc1ccc2c(c1)sc1nc(-c3ccccc3)c(COCCCCCCCCCCn3cncn3)n12`, the MIC in assay [1] is greater than 512 µg/mL; in assay [2] it was greater than 512 µg/mL; in assay [3], 64 µg/mL (≈ 120 µM); in [4], 32 µg/mL (≈ 60.2 µM); in [5] it was 8 µg/mL (≈ 15 µM); in assay [6], 128 µg/mL (≈ 241 µM). The MIC was 64 µg/mL (≈ 120 µM) in assay [7]; greater than 512 µg/mL in assay [8]; 8 µg/mL (≈ 15 µM) in assay [9]; 64 µg/mL (≈ 120 µM) in assay [10]; 32 µg/mL (≈ 60.2 µM) in assay [11]; greater than 512 µg/mL in [12]. The MIC in assay [13] turned out to be 128 µg/mL (≈ 241 µM); in assay [14], 64 µg/mL (≈ 120 µM); in [15], 64 µg/mL (≈ 120 µM).
In the case of `CCOc1ccc2c(c1)sc1nc(-c3ccccc3)c(COCCCCCn3c([N+](=O)[O-])cnc3C)n12`, the minimal inhibitory concentration (MIC) in assay [1] was 32 µg/mL (≈ 61.6 µM); in assay [2], 128 µg/mL (≈ 246 µM); in assay [3], greater than 512 µg/mL; in [4], 512 µg/mL (≈ 985 µM); in assay [5] it was 512 µg/mL (≈ 985 µM); in assay [6] it was 128 µg/mL (≈ 246 µM). In addition, the minimal inhibitory concentration (MIC) in [7] is greater than 512 µg/mL; in assay [8] it was 256 µg/mL (≈ 493 µM); in assay [9] it was 128 µg/mL (≈ 246 µM); in [11], 512 µg/mL (≈ 985 µM); in assay [12], 128 µg/mL (≈ 246 µM); in [15], 256 µg/mL (≈ 493 µM).
